# Source: patent US20180201592A1, “2-AMINO-1,3,4-THIADIAZINE AND 2-AMINO-1,3,4-OXADIAZINE BASED ANTIFUNGAL AGENTS” (F2G Limited, priority 2015, published 2018)
# Legend:
# Conditions in all cases: banded MIC grade
# Aspergillus fumigatus = experiment: Minimum inhibitory concentration, YAG medium; assay type: cell-based
# Procedure, shortened: (§1)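 Spores from 5-day Sabouraud agar cultures were suspended in YAG medium (1% glucose, 1% ammonium chloride, 0.5% yeast extract) at 1-2×10^4 cfu/mL and exposed to doubling dilutions of compound (50-0.05 mg/L) for 24 hrs at 35° C. MIC was the lowest concentration giving >70% growth inhibition by OD485 versus drug-free control.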
# A. fumigatus 210 [1] = experiment: Minimum inhibitory concentration, YAG medium; assay type: cell-based, Aspergillus fumigatus
# Procedure, shortened: as §1
# A. terreus 49 [2] = experiment: Minimum inhibitory concentration, YAG medium; assay type: cell-based, Aspergillus terreus
# Procedure, shortened: (§2)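 Compound in DMSO (5 mg/mL stock), diluted in water and doubling-diluted; Aspergillus spores grown in YAG medium 24 hrs at 35° C. Growth read as optical density at 485 nm; MIC given in mg/L.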
# Aspergillus flavus = experiment: Minimum inhibitory concentration, YAG medium; assay type: cell-based
# Procedure, shortened: as §2
# Aspergillus niger = experiment: Minimum inhibitory concentration, YAG medium; assay type: cell-based
# Procedure, shortened: as §2
# Aspergillus terreus = experiment: Minimum inhibitory concentration, YAG medium; assay type: cell-based
# Procedure, shortened: as §2
# A. flavus = experiment: Minimum inhibitory concentration, RPMI medium; assay type: cell-based
# Procedure, shortened: (§3)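 Broth microdilution in RPMI 1640 medium using doubling dilutions in water prepared from a 5 mg/mL DMSO stock. Plates incubated 24-48 hrs at 35° C; growth read as optical density at 485 nm.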
# A. niger = experiment: Minimum inhibitory concentration, RPMI medium; assay type: cell-based
# Procedure, shortened: as §3
# A. terreus 49 [3] = experiment: Minimum inhibitory concentration, RPMI medium; assay type: cell-based
# Procedure, shortened: as §3
# A. terreus = experiment: Minimum inhibitory concentration, RPMI medium; assay type: cell-based
# Procedure, shortened: as §3
# C. albicans = experiment: Minimum inhibitory concentration, RPMI medium; assay type: cell-based
# Procedure, shortened: as §3
# C. glabrata = experiment: Minimum inhibitory concentration, RPMI medium; assay type: cell-based
# Procedure, shortened: as §3
# C. krusei = experiment: Minimum inhibitory concentration, RPMI medium; assay type: cell-based
# Procedure, shortened: as §3
# C. parapsilosis = experiment: Minimum inhibitory concentration, RPMI medium; assay type: cell-based
# Procedure, shortened: as §3
# C. tropicalis = experiment: Minimum inhibitory concentration, RPMI medium; assay type: cell-based
# Procedure, shortened: as §3
# A. fumigatus 210 [4] = experiment: Minimum inhibitory concentration, RPMI medium; assay type: cell-based
# Procedure: (§4) Between 1 and 5 mgs of compound were accurately weighed out into a sterile Eppendorf tube. The compound was dissolved in DMSO to give a solution containing 5 mg/mL. Tubes were stored at −20° C. until required.
# (§5) On the day of testing thawed solutions were vortex mixed to ensure homogeneity. 30 μL of solution was removed and added to 570 μL of sterile water in a separate sterile Eppendorf. The thoroughly mixed solution was used to prepare a series of doubling dilutions in water, in a deep well plate. Thirteen replicate plates were prepared using a Minitrak by aspirating 20 μL from each well into eleven clear polystyrene 96 well plates.
# (§6) Assays were also performed in RPMI medium (Roswell Park Memorial Media 1640). To perform MIC tests in this medium, dilutions of compounds are prepared in microtitre plates as described above. Fungal strains to be tested are grown and harvested in an identical manner to that described above, and each organism suspension was diluted in RPMI medium, typically containing 2% glucose and 0.135 M MOPS buffer (pH 7.0) to 0.5-2×10^4cfu/mL, rather than in YAG medium. 80 μL of an organism suspension was added to each well of the plate containing drug dilutions.
# (§7) This produced MIC plates with a drug range 50-0.05 mg/L and organism inocula of 1-2×10^4 cfu/mL. All plates were incubated for 24-48 hrs at 35° C. Growth was assessed by monitoring the optical density at 485 nm for each well. The MIC of a compound is the lowest drug concentration that inhibits growth of an organism by >80% compared with a drug free control. The following organisms were tested: C. albicans, C. parapsilosis, C. tropicalis, C. glabrata, C. krusei, A. niger, A. fumigatus, A. terreus, A. flavus, A. terreus 49, and A. fumigatus 210.
# A. fumigatus = experiment: Minimum inhibitory concentration, RPMI medium; assay type: cell-based
# Procedure: as §4, §5, §6, §7
Structure (SMILES),"MIC grade, A. FUMIGATUS, YAG media (Aspergillus fumigatus)","MIC grade, A. FUMIGATUS 210, YAG media (A. fumigatus 210 [1])","MIC grade, A. TERREUS 49, YAG media (A. terreus 49 [2])","MIC grade, A. FLAVUS, YAG media (Aspergillus flavus)","MIC grade, A. NIGER, YAG media (Aspergillus niger)","MIC grade, A. TERREUS, YAG media (Aspergillus terreus)","MIC grade, A. FLAVUS, RPMI media (A. flavus)","MIC grade, A. NIGER, RPMI media (A. niger)","MIC grade, A. TERREUS 49, RPMI media (A. terreus 49 [3])","MIC grade, A. TERREUS, RPMI media (A. terreus)","MIC grade, C. ALBICANS, RPMI media (C. albicans)","MIC grade, C. GLABRATA, RPMI media (C. glabrata)","MIC grade, C. KRUSEI, RPMI media (C. krusei)","MIC grade, C. PARAPSILOSIS, RPMI media (C. parapsilosis)","MIC grade, C. TROPICALIS, RPMI media (C. tropicalis)","MIC grade, A. FUMIGATUS 210, RPMI media (A. fumigatus 210 [4])","MIC grade, A. FUMIGATUS, RPMI media (A. fumigatus)"
CC(=O)OCCCCC1=NN=C(N)SC1,4 (4: <0.2 mg/L),4 (4: <0.2 mg/L),4 (4: <0.2 mg/L),4 (4: <0.2 mg/L),3 (3: 0.2-1 mg/L),4 (4: <0.2 mg/L),3 (3: 1-5 mg/L),2 (2: 5-20 mg/L),3 (3: 1-5 mg/L),3 (3: 1-5 mg/L),3 (3: 1-5 mg/L),2 (2: 5-20 mg/L),4 (4: <1 mg/L),4 (4: <1 mg/L),3 (3: 1-5 mg/L),3 (3: 1-5 mg/L),3 (3: 1-5 mg/L)
NC1=NN=C(CCCCOCCc2ccccc2)CS1,3 (3: 0.2-1 mg/L),3 (3: 0.2-1 mg/L),3 (3: 0.2-1 mg/L),4 (4: <0.2 mg/L),3 (3: 0.2-1 mg/L),3 (3: 0.2-1 mg/L),3 (3: 1-5 mg/L),2 (2: 5-20 mg/L),2 (2: 5-20 mg/L),2 (2: 5-20 mg/L),3 (3: 1-5 mg/L),2 (2: 5-20 mg/L),3 (3: 1-5 mg/L),3 (3: 1-5 mg/L),3 (3: 1-5 mg/L),1 (1: ≥20 mg/L),2 (2: 5-20 mg/L)
NC1=NN=C(CCCCOCc2c(F)cccc2Cl)CS1,3 (3: 0.2-1 mg/L),3 (3: 0.2-1 mg/L),3 (3: 0.2-1 mg/L),3 (3: 0.2-1 mg/L),3 (3: 0.2-1 mg/L),3 (3: 0.2-1 mg/L),2 (2: 5-20 mg/L),2 (2: 5-20 mg/L),2 (2: 5-20 mg/L),2 (2: 5-20 mg/L),2 (2: 5-20 mg/L),2 (2: 5-20 mg/L),3 (3: 1-5 mg/L),2 (2: 5-20 mg/L),2 (2: 5-20 mg/L),1 (1: ≥20 mg/L),2 (2: 5-20 mg/L)
NC1=NN=C(CCCCOCc2cc(F)ccc2F)CS1,4 (4: <0.2 mg/L),4 (4: <0.2 mg/L),4 (4: <0.2 mg/L),4 (4: <0.2 mg/L),4 (4: <0.2 mg/L),4 (4: <0.2 mg/L),2 (2: 5-20 mg/L),2 (2: 5-20 mg/L),2 (2: 5-20 mg/L),2 (2: 5-20 mg/L),3 (3: 1-5 mg/L),2 (2: 5-20 mg/L),3 (3: 1-5 mg/L),3 (3: 1-5 mg/L),3 (3: 1-5 mg/L),2 (2: 5-20 mg/L),2 (2: 5-20 mg/L)
CCCCc1cccc(COCCCCC2=NN=C(N)SC2)c1,1 (1: ≥5 mg/L),1 (1: ≥5 mg/L),2 (2: 1-5 mg/L),3 (3: 0.2-1 mg/L),3 (3: 0.2-1 mg/L),2 (2: 1-5 mg/L),2 (2: 5-20 mg/L),2 (2: 5-20 mg/L),2 (2: 5-20 mg/L),2 (2: 5-20 mg/L),2 (2: 5-20 mg/L),1 (1: ≥20 mg/L),2 (2: 5-20 mg/L),2 (2: 5-20 mg/L),2 (2: 5-20 mg/L),1 (1: ≥20 mg/L),2 (2: 5-20 mg/L)
CCc1cccc(COCCCCC2=NN=C(N)SC2)c1,4 (4: <0.2 mg/L),3 (3: 0.2-1 mg/L),4 (4: <0.2 mg/L),4 (4: <0.2 mg/L),4 (4: <0.2 mg/L),4 (4: <0.2 mg/L),3 (3: 1-5 mg/L),2 (2: 5-20 mg/L),2 (2: 5-20 mg/L),2 (2: 5-20 mg/L),4 (4: <1 mg/L),2 (2: 5-20 mg/L),4 (4: <1 mg/L),4 (4: <1 mg/L),4 (4: <1 mg/L),2 (2: 5-20 mg/L),2 (2: 5-20 mg/L)
NC1=NN=C(CCCCOCc2ccc(Br)cc2)CS1,4 (4: <0.2 mg/L),4 (4: <0.2 mg/L),4 (4: <0.2 mg/L),4 (4: <0.2 mg/L),4 (4: <0.2 mg/L),4 (4: <0.2 mg/L),4 (4: <1 mg/L),3 (3: 1-5 mg/L),3 (3: 1-5 mg/L),4 (4: <1 mg/L),4 (4: <1 mg/L),4 (4: <1 mg/L),4 (4: <1 mg/L),4 (4: <1 mg/L),4 (4: <1 mg/L),2 (2: 5-20 mg/L),2 (2: 5-20 mg/L)
NC1=NN=C(CCCCSCc2ccc(Cl)cc2)CS1,3 (3: 0.2-1 mg/L),3 (3: 0.2-1 mg/L),4 (4: <0.2 mg/L),4 (4: <0.2 mg/L),4 (4: <0.2 mg/L),4 (4: <0.2 mg/L),3 (3: 1-5 mg/L),3 (3: 1-5 mg/L),2 (2: 5-20 mg/L),2 (2: 5-20 mg/L),3 (3: 1-5 mg/L),2 (2: 5-20 mg/L),3 (3: 1-5 mg/L),3 (3: 1-5 mg/L),3 (3: 1-5 mg/L),2 (2: 5-20 mg/L),2 (2: 5-20 mg/L)
